{"source": "patent US20120295845A1", "about": "“IMIDAZO-PYRAZOLES AS GPR119 INHIBITORS” (Pfizer Inc, priority 2009, published 2012)", "biological_target": "T1, human GPR119 (Homo sapiens, UniProt Q8TDV5)", "T1 construct": "host or cells: HEK293-CRE beta-lactamase cells", "T1 sequence (Q8TDV5 1-335)": "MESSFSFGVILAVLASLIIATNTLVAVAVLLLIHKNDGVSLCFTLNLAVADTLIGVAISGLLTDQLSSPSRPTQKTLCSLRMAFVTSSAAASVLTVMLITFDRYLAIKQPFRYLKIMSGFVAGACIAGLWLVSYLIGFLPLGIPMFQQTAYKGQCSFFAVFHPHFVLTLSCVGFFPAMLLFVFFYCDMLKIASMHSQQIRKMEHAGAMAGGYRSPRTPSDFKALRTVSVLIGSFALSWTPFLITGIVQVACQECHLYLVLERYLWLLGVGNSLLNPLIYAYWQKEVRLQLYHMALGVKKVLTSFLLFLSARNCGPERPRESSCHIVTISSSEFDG", "test": "beta-lactamase functional assay (hGPR119 HEK293-CRE beta-lactamase reporter)", "assay_type": "cell-based", "details": "for EC50: read-out: Human B-lactamase Functional EC50; for Emax: read-out: Intrinsic Activity* (B-lactamase)", "protocol": "The assay for GPR119 agonists utilizes a cell-based (hGPR119 HEK293-CRE beta-lactamase) reporter construct where agonist activation of human GPR119 is coupled to beta-lactamase production via a cyclic AMP response element (CRE). GPR119 activity is then measured utilizing a FRET-enabled beta-lactamase substrate, CCF4-AM (Live Blazer FRET-B/G Loading kit, Invitrogen cat # K1027). Specifically, hGPR119-HEK-CRE- beta-lactamase cells (Invitrogen 2.5×10^7/mL) were removed from liquid nitrogen storage, and diluted in plating medium (Dulbecco's modified Eagle medium high glucose (DMEM; Gibco Cat # 11995-065), 10% heat inactivated fetal bovine serum (HIFBS; Sigma Cat # F4135), 1×MEM Nonessential amino acids (Gibco Cat # 15630-080), 25 mM HEPES pH 7.0 (Gibco Cat # 15630-080), 200 nM potassium clavulanate (Sigma Cat # P3494). The cell concentration was adjusted using cell plating medium and 50 microL of this cell suspension ([…]) was added into each well of a black, clear bottom, poly-d-lysine coated 384-well plate (Greiner Bio-One cat# 781946) and incubated at 37 degrees Celsius in a humidified environment containing 5% carbon dioxide. After 4 hours the plating medium was removed and replaced with 40 microL of assay medium (Assay medium is plating medium without potassium clavulanate and HIFBS). Varying concentrations of each compound to be tested was then added in a volume of 10 microL (final DMSO≦0.5%) and the cells were incubated for 16 hours at 37 degrees Celsius in a humidified environment containing 5% carbon dioxide. Plates were removed from the incubator and allowed to equilibrate to room temperature for approximately 15 minutes. 10 microL of 6×CCF4/AM working dye solution (prepared according to instructions in the Live Blazer FRET-B/G Loading kit, Invitrogen cat # K1027) was added per well and incubated at room temperature for 2 hours in the dark. Fluorescence was measured on an EnVision fluorimetric plate reader, excitation 405 nm, emission 460 nm/535 nm. EC50 determinations were made from agonist-response curves analyzed with a curve fitting program using a 4-parameter logistic dose-response equation.", "key": {"[1]": {"details": "percent of maximal activity relative to standard GPR119 agonist (WO2005121121) at 10 microM, one value per run"}}, "note": "Values joined by “and” are separate entries in the source; they are usually repeats but may differ in a detail not shown here. Identical values can stand only once. Like-named read-outs stand apart in the source and are kept apart here.", "data": [{"smiles": "Cc1c(OC2CCN(C(=O)OC(C)C)CC2)ncnc1N1CCn2nccc21", "note": "[Example 1, Isopropyl 4-{[6-(2,3-dihydro-1H-imidazo[1,2-b]pyrazol-1-yl)-5-methylpyrimidin-4-yl]oxy}piperidine-1-carboxylate]", "values": [{"measurement": "EC50", "setting": "curve was extrapolated to 100% to calculate the EC50 (**), one value per run", "result": "8190 nM and 4570 nM"}, {"measurement": "EC50", "setting": "hGPR119 HEK293-CRE beta-lactamase cells, 16 h incubation, one value per run", "result": "612 nM and 386 nM and 1150 nM and 1440 nM"}, {"measurement": "Emax", "setting": "marked **: curve extrapolated to 100%, relative to standard GPR119 agonist at 10 microM", "result": 100, "unit": "%"}, {"measurement": "Intrinsic Activity* (B-lactamase)", "setting": "[1]", "result": "94% and 96%"}, {"measurement": "Emax", "setting": "[1]", "result": 110, "unit": "%"}]}]}
